What all share (assay): growth of human tumour cells (NCI), 48 h
Test [1] relates to SR leukemia.
The test system of test [2] is SN12C renal.
Test [3] concerns SF-268 CNS.
Test [4] has as its system MALME-3M melanoma.
Test [5] has as its system HT29 colon.
In test [6] the test system is OVCAR-3 ovarian.
The test system of test [7] is MOLT-4 leukemia.
The test system of test [8] is RPMI-8226 leukemia.
In test [9] the test system is HOP-62 NSCLC.

Structures are written as SMILES. Where “and” joins values, the source holds several entries; their conditions need not be identical. Identical values can stand only once.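 Five concentrations, 48 hours, 96-well plates. Abbreviation: GI50, concentration required for 50% inhibition of growth. TGI: concentration producing complete growth inhibition.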

As to `O=S(=O)(c1ccccc1)C1(C2(S(=O)(=O)c3ccccc3)CCN=N2)CCN=N1` (centres undefined), the TGI in test [1], in test [2], in test [3], in test [4], in [5] and in test [6] was over 100 µM in each case. Besides, the TGI in [7] and in test [8] was over 100 µM each time.
On to `CCCOC(=O)C1C(c2ccc(OC)cc2)NC(c2ccc(OC)cc2)C(C(=O)OCCC)S1(=O)=O` (centres undefined), for which the TGI in test [1], in [9], in test [2], in test [3], in test [4] and in test [5] was over 100 µM throughout. Further, the TGI in test [6], in test [7] and in test [8] was over 100 µM throughout. The GI50 in [9], in [2], in test [3], in test [4], in test [5] and in test [6] was over 100 µM each time. In addition, the GI50 in test [7] and in test [8] was over 100 µM each time.
On to `COC(=O)C(C(=O)C(=O)Nc1nc2ccc(OC)cc2s1)c1cnc2ccccc2n1` (centres undefined), for which the TGI in test [9], in test [2], in test [3], in test [4], in test [5] and in test [6] was over 100 µM each time. Also, the TGI in [7] and in [8] was over 100 µM each time.
Regarding `Cc1cc(N)c2cc(NC(=O)/C=C\c3ccccc3Cl)ccc2n1`, the GI50 in [9] is 0.725 µM; in test [2], 1.36 µM; in [3] it was 1.44 µM; in [4], 2.05 µM; in test [5], 0.41 µM; in [6] it was 1.31 µM. Moreover, the GI50 in test [7] is 1.09 µM. For the same molecule, the TGI in test [9] came to 1.73 µM; in test [2], 2.69 µM; in test [3] it was 2.97 µM; in test [4] it was 3.89 µM; in [5], 1.5 µM; in test [6], 2.7 µM. Moreover, the TGI in test [7] was found to be 2.54 µM.
Take `O=C1CC2=CCCC2O1` (centres undefined): the TGI in [9], in [2], in test [3], in test [4], in [5] and in test [6] was over 100 µM throughout. Besides, the TGI in test [7] and in [8] was over 100 µM throughout.
For the molecule `CC[P+](C)(C)CC`, the TGI in test [1], in test [9], in test [2], in [3], in [4] and in test [5] was over 100 µM throughout. Moreover, the TGI in test [6], in [7] and in test [8] was over 100 µM each time.
Regarding `Oc1ccc(Br)cc1C=Nc1ccc(Oc2ccc(N=Cc3cc(Br)ccc3O)cc2)cc1`, the TGI in test [1], in [9], in [2], in [3], in test [4] and in test [5] was over 19.6 µM each time. Besides, the TGI in [6], in test [7] and in test [8] was over 19.6 µM in each case.
For `COc1ccc(C2=NC(CO)[C@H](c3ccccc3)O2)cc1OC` (some centres undefined), the TGI in test [9], in test [2], in test [3], in [4], in [5] and in test [6] was over 100 µM in each case. For the same molecule, the TGI in test [7] was over 100 µM.
Turning to `CC[C@@]1(O)C(=O)OCc2c1cc1n(c2=O)Cc2cc3c(N)c(OC)ccc3nc2-1`, the GI50 in [1] was under 0.01 µM; in test [9], under 0.01 µM; in test [2], 0.0124 µM; in test [3], 0.0152 µM; in test [4], 0.236 µM; in test [5] it was 0.205 µM. Moreover, the GI50 in test [6] is 0.328 µM; in test [7], under 0.01 µM; in test [8], 0.135 µM. Moreover, the TGI in test [9] was 0.037 µM; in test [2] it was 0.126 µM; in [4], 4.05 µM; in [5], over 100 µM; in [6], 1.65 µM; in test [7] it was 0.0711 µM. Also, the TGI in [8] came to 2.32 µM.
`O=S(=O)([O-])c1ccc(C=Nc2ccccc2)c([O-])c1.O=S(=O)([O-])c1ccc(C=Nc2ccccc2)c([O-])c1.[Co+2]`: the GI50 in test [1] is 24.9 µM; in test [2] it was 18.8 µM; in [3], 5.18 µM; in test [4] it was 99.1 µM; in test [6], over 100 µM; in [7] it was 7.71 µM. In addition, in [8], the GI50 was over 100 µM. In addition, the TGI in test [1], in test [2], in [3], in test [4], in [6] and in [7] was over 100 µM throughout. This molecule yielded a TGI in test [8] of over 100 µM.
For the molecule `O=C1c2ccccc2C(=O)N1CCN(CCN1C(=O)c2ccccc2C1=O)Cc1ccccc1`, the TGI in test [1], in test [9], in [2], in test [3], in test [6] and in [7] was over 100 µM in each case. Further, in test [8], the TGI is over 100 µM.
Consider `Cc1nc2ccccc2c(/C=C/c2ccc(C(F)(F)F)cc2)c1C(=O)/C=C/c1ccccc1`, for which the GI50 was 1.64 µM in [9]; 1.54 µM in [2]; 1.6 µM in test [4]; 1.04 µM in [5]; 1.2 µM in test [6]; 0.508 µM in test [7]. Further, in test [8], the GI50 was 0.999 µM. For the same molecule, the TGI in test [9] stood at 3.16 µM; in [2] it was 3.01 µM; in test [4], 3.02 µM; in test [5], 6.05 µM; in test [6] it was 2.52 µM; in test [7], 5.79 µM. The same molecule registered a TGI in [8] of 4.64 µM.
On to `COc1ccc(C)cc1-c1ccc(-c2cc(C)ccc2OC)o1`, for which the TGI in test [9], in test [2], in test [3], in test [4], in test [5] and in test [6] was over 100 µM each time. The TGI in test [7] and in test [8] was over 100 µM in each case.
On to `COc1cc(Br)c(C=Nc2cccc3ccc(OS(=O)(=O)c4ccc([N+](=O)[O-])cc4)cc23)cc1OC`, for which the TGI in test [1], in test [9], in test [2], in [3], in test [4] and in test [5] was over 100 µM throughout. Moreover, the TGI in [6], in test [7] and in test [8] was over 100 µM each time.
Consider `O=C1C=C(c2ccccc2)NC1(c1ccccc1)c1cc(-c2ccccc2)[nH]c1-c1ccccc1` (centres undefined), for which the TGI in test [1] was over 100 µM; in test [9], 19 µM; in [2], over 100 µM; in test [5], over 100 µM; in test [6], over 100 µM; in test [7] it was over 100 µM.
Consider `C=CCN=C1NC(=O)C(CC(=O)Nc2ccc([N+](=O)[O-])cc2[N+](=O)[O-])S1` (centres undefined), for which the TGI in test [9], in [2], in test [3], in test [4], in test [5] and in [6] was over 100 µM throughout. This molecule also returned a TGI in test [7] of over 100 µM.
Take `CC(C)CC1CC2C(=O)N(c3ccccc3)C(=O)C2c2[nH]c3ccccc3c21` (centres undefined): the TGI is 76.4 µM in test [1]; 47.8 µM in test [9]; over 43.8 µM in [2]; over 100 µM in test [3]; 37 µM in test [4]; over 100 µM in test [5]. Further, the TGI in test [6] was 42.7 µM; in [7] it was over 58.7 µM; in [8] it was over 100 µM.
In the case of `NC(=O)c1c(-c2ccccc2)c(-c2ccccc2)cc2c(=O)c3ccccc3[nH]c12`, the TGI in [9] was 58.5 µM; in test [2] it was over 100 µM; in test [3], over 100 µM; in [4] it was 37.1 µM; in test [5], 42.9 µM; in [6] it was 46.4 µM. Moreover, the TGI is 44.7 µM in [7] and over 100 µM in test [8].
For the molecule `COc1ccc(-c2cc(-c3ccco3)c(C#N)c(=O)n2C2OC(COC(C)=O)C(OC(C)=O)C(OC(C)=O)C2OC(C)=O)cc1` (centres undefined), the TGI in [1] is over 100 µM; in test [9] it was > 100 µM and 79.2 µM; in test [2], > 100 µM and 55.2 µM; in test [3], over 100 µM; in [4], over 100 µM; in test [5], over 100 µM. Moreover, the TGI in test [6] is > 100 µM and 44.3 µM; in test [7] it was over 100 µM; in test [8], over 100 µM. The GI50 is > 100 µM and 23 µM in test [9]; > 100 µM and 18.9 µM in test [2]; > 100 µM and 28.2 µM in [3]; > 100 µM and 25 µM in test [4]; > 100 µM and 28.6 µM in [5]; > 100 µM and 18.1 µM in test [6].
Turning to `NNC(=O)C(=O)N/N=C1\CCCC1C(=O)CCC(=O)Nc1cccc(Cl)c1` (centres undefined), the TGI in test [9], in test [2], in test [3], in test [4], in test [5] and in test [6] was over 100 µM each time. In addition, the TGI in test [7] and in test [8] was over 100 µM in each case.
Consider `COC(=O)N1C=CC2=C(C)C3Nc4ccccc4C3C(C)=C2C1` (centres undefined), for which the TGI in test [9] was 12.6 µM; in test [3], 74.2 µM; in [4] it was 13.1 µM; in test [5], over 100 µM; in test [6] it was 3.69 µM; in [7], 12.3 µM. The same molecule registered a TGI in [8] of 5.87 µM.
In the case of `NNC(=S)N/N=C(\c1nc2ccc(Cl)cc2[nH]c1=O)C(O)c1cccc([N+](=O)[O-])c1` (centres undefined), the TGI in [1] is 33.8 µM; in test [9], over 55.8 µM; in test [2], over 100 µM; in [3] it was over 79.5 µM; in [4] it was over 100 µM; in test [5], over 50.9 µM. Further, the values for the TGI in test [6], in test [7] and in test [8] were over 100 µM, over 100 µM and over 63.7 µM, respectively.
On to `N/N=C1\C(=O)N(c2ccc(Cl)c(Cl)c2)C(=O)C1C(=O)Nc1ccc(Cl)c(Cl)c1` (centres undefined), for which the TGI in [9], in test [2], in [3], in [4], in [5] and in test [6] was over 100 µM throughout. The TGI in test [7] and in test [8] was over 100 µM in each case.
For the molecule `CN(C)c1ccc(-c2nc(N)nc3c2CCCC3)cc1`, the TGI was over 100 µM in test [9]; over 100 µM in test [2]; over 100 µM in test [3]; over 100 µM in test [4]; 96.7 µM in test [6]; over 100 µM in test [7]. Also, in test [8], the TGI was over 100 µM.
For the molecule `CCOC(=O)C(c1ccsc1)P(=O)(OCC)OCC` (centres undefined), the TGI in test [9] is 52 µM; in test [2], 30.1 µM; in test [3] it was 69.6 µM; in test [4], 60.8 µM; in test [5], 39.7 µM; in [6], 26.9 µM. Also, the TGI in test [7] and in [8] was over 100 µM throughout.
For `Cc1ccc(C)c(NC(=O)C(=O)C(C2C(C)CC(=O)C2CC(=O)O)[N+](=O)[O-])c1` (centres undefined), the TGI in test [1], in [9], in test [2], in [3], in test [4] and in [5] was over 100 µM throughout. Also, the TGI in test [6], in test [7] and in [8] was over 100 µM each time.
On to `CC1(C)CCOC(Sc2ccccc2)C1` (centres undefined), for which the TGI in [1], in [9], in test [2], in test [3], in [6] and in test [7] was over 100 µM in each case. Besides, the TGI in [8] is 91.3 µM.
For `Nc1ncnc2c1ncn2C1(CO)OC(CO)C(O)C1O` (centres undefined), the TGI in test [1], in test [9], in test [2], in test [3], in test [4] and in test [5] was over 100 µM throughout. In addition, the TGI in test [7] and in [8] was over 100 µM throughout.
